Source: PubChem BioAssay AID212 (DTP/NCI, 2004)
Values joined by “and” are separate entries in the source; they are usually repeats but may differ in a detail not shown here. Identical values can stand only once. Inconclusive results are not listed.

System: BDF1 mice, colon carcinoma 38 sc, T/C %
Experiment: NCI In Vivo Anticancer Drug Screen. Data for tumor model Colon Carcinoma 38 (subcutaneous) in B6D2F1 (BDF1) mice
Method in brief: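 Transplantable tumor in mice; compound-treated vs vehicle-dosed controls. Measured survival or tumor size; value = T ÷ C.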

## Nc1ccc2c(c1)CN1C(=O)c3ccccc3C1=N2
endpoint: median survival time, dose: 60.0 mg/kg/injection, schedule: Q07DX002 (oral), vehicle: saline with Tween-80, higher = longer survival
  T/C: 96 % of control
endpoint: median survival time, dose: 100.0 mg/kg/injection, schedule: Q01DX008 (oral), vehicle: saline with Tween-80, higher = longer survival
  T/C: 103 % of control
endpoint: median survival time, dose: 200.0 mg/kg/injection, schedule: Q01DX008 (oral), vehicle: saline with Tween-80, higher = longer survival
  T/C: 96 % of control
endpoint: median survival time, dose: 800.0 mg/kg/injection, schedule: Q07DX002 (oral), vehicle: saline with Tween-80, higher = longer survival
  T/C: 90 % of control
endpoint: median survival time, dose: 1000.0 mg/kg/injection, schedule: Q07DX002 (oral), vehicle: saline with Tween-80, higher = longer survival
  T/C: 97 % of control
endpoint: median tumor weight (est.), dose: 50.0 mg/kg/injection, schedule: Q07DX002 (ip), vehicle: DMSO, higher = larger tumour
  T/C: 50 % of control
endpoint: median tumor weight (est.), dose: 100.0 mg/kg/injection, schedule: Q07DX002 (ip), vehicle: other, higher = larger tumour
  T/C: 13 % of control
endpoint: median tumor weight (est.), dose: 103.7 mg/kg/injection, schedule: Q01DX005 (oral), vehicle: saline with Tween-80, higher = larger tumour
  T/C: 52 % of control
endpoint: median tumor weight (est.), dose: 129.6 mg/kg/injection, schedule: Q06HX004 (oral), vehicle: saline with Tween-80, higher = larger tumour
  T/C: 26 % of control
endpoint: median tumor weight (est.), dose: 172.8 mg/kg/injection, schedule: Q01DX005 (oral), vehicle: saline with Tween-80, higher = larger tumour
  T/C: 52 % of control
endpoint: median tumor weight (est.), dose: 200.0 mg/kg/injection, schedule: Q07DX002 (oral), vehicle: saline with Tween-80, higher = larger tumour
  T/C: 27 % of control
endpoint: median tumor weight (est.), dose: 216.0 mg/kg/injection, schedule: Q06HX004 (oral), vehicle: saline with Tween-80, higher = larger tumour
  T/C: 16 % of control
endpoint: median tumor weight (est.), dose: 288.0 mg/kg/injection, schedule: Q01DX005 (oral), vehicle: saline with Tween-80, higher = larger tumour
  T/C: 7 % of control
endpoint: median tumor weight change, dose: 70.4 mg/kg/injection, schedule: Q01DX009 (oral), vehicle: saline with Tween-80, higher = larger tumour
  T/C: 13 % of control
endpoint: median tumor weight change, dose: 105.6 mg/kg/injection, schedule: Q01DX005 (oral), vehicle: saline with Tween-80, higher = larger tumour
  T/C: 68 % of control
endpoint: median tumor weight change, dose: 105.6 mg/kg/injection, schedule: Q01DX009 (oral), vehicle: saline with Tween-80, higher = larger tumour
  T/C: 42 % of control
endpoint: median tumor weight change, dose: 158.3 mg/kg/injection, schedule: Q01DX005 (oral), vehicle: saline with Tween-80, higher = larger tumour
  T/C: -5 % of control
endpoint: median tumor weight change, dose: 158.3 mg/kg/injection, schedule: Q01DX009 (oral), vehicle: saline with Tween-80, higher = larger tumour
  T/C: -40 % of control
endpoint: median tumor weight change, dose: 158.3 mg/kg/injection, schedule: Q06HX002 (oral), vehicle: saline with Tween-80, higher = larger tumour
  T/C: 71 % of control
endpoint: median tumor weight change, dose: 158.3 mg/kg/injection, schedule: Q06HX004 (oral), vehicle: saline with Tween-80, higher = larger tumour
  T/C: 60 % of control
endpoint: median tumor weight change, dose: 158.3 mg/kg/injection, schedule: Q07DX003 (oral), vehicle: saline with Tween-80, higher = larger tumour
  T/C: 24 % of control
endpoint: median tumor weight change, dose: 237.0 mg/kg/injection, schedule: Q08DX002 (oral), vehicle: saline with Tween-80, higher = larger tumour
  T/C: 33 % of control
endpoint: median tumor weight change, dose: 237.4 mg/kg/injection, schedule: Q01DX005 (oral), vehicle: saline with Tween-80, higher = larger tumour
  T/C: -60 % of control
endpoint: median tumor weight change, dose: 237.4 mg/kg/injection, schedule: Q06HX002 (oral), vehicle: saline with Tween-80, higher = larger tumour
  T/C: 37 % of control
endpoint: median tumor weight change, dose: 237.4 mg/kg/injection, schedule: Q06HX004 (oral), vehicle: saline with Tween-80, higher = larger tumour
  T/C: 36 % of control
endpoint: median tumor weight change, dose: 237.4 mg/kg/injection, schedule: Q07DX002 (oral), vehicle: saline with Tween-80, higher = larger tumour
  T/C: 80 % of control
endpoint: median tumor weight change, dose: 237.4 mg/kg/injection, schedule: Q07DX003 (oral), vehicle: saline with Tween-80, higher = larger tumour
  T/C: 69 % of control
endpoint: median tumor weight change, dose: 355.9 mg/kg/injection, schedule: Q01DX001 (oral), vehicle: saline with Tween-80, higher = larger tumour
  T/C: 68 % of control
endpoint: median tumor weight change, dose: 355.9 mg/kg/injection, schedule: Q01DX005 (oral), vehicle: saline with Tween-80, higher = larger tumour
  T/C: -88 % of control
endpoint: median tumor weight change, dose: 355.9 mg/kg/injection, schedule: Q06HX002 (oral), vehicle: saline with Tween-80, higher = larger tumour
  T/C: 48 % of control and 66 % of control
endpoint: median tumor weight change, dose: 355.9 mg/kg/injection, schedule: Q06HX004 (oral), vehicle: saline with Tween-80, higher = larger tumour
  T/C: -13 % of control
endpoint: median tumor weight change, dose: 355.9 mg/kg/injection, schedule: Q07DX002 (oral), vehicle: saline with Tween-80, higher = larger tumour
  T/C: 23 % of control
endpoint: median tumor weight change, dose: 355.9 mg/kg/injection, schedule: Q07DX003 (oral), vehicle: saline with Tween-80, higher = larger tumour
  T/C: 55 % of control
endpoint: median tumor weight change, dose: 355.9 mg/kg/injection, schedule: Q08DX002 (oral), vehicle: saline with Tween-80, higher = larger tumour
  T/C: 33 % of control
endpoint: median tumor weight change, dose: 533.6 mg/kg/injection, schedule: Q01DX001 (oral), vehicle: saline with Tween-80, higher = larger tumour
  T/C: 66 % of control
endpoint: median tumor weight change, dose: 533.6 mg/kg/injection, schedule: Q06HX002 (oral), vehicle: saline with Tween-80, higher = larger tumour
  T/C: -46 % of control and -38 % of control
endpoint: median tumor weight change, dose: 533.6 mg/kg/injection, schedule: Q06HX004 (oral), vehicle: saline with Tween-80, higher = larger tumour
  T/C: -50 % of control
endpoint: median tumor weight change, dose: 533.6 mg/kg/injection, schedule: Q07DX002 (oral), vehicle: saline with Tween-80, higher = larger tumour
  T/C: 52 % of control
endpoint: median tumor weight change, dose: 533.6 mg/kg/injection, schedule: Q07DX003 (oral), vehicle: saline with Tween-80, higher = larger tumour
  T/C: 34 % of control
endpoint: median tumor weight change, dose: 533.6 mg/kg/injection, schedule: Q08DX002 (oral), vehicle: saline with Tween-80, higher = larger tumour
  T/C: 34 % of control
endpoint: median tumor weight change, dose: 800.0 mg/kg/injection, schedule: Q01DX001 (oral), vehicle: saline with Tween-80, higher = larger tumour
  T/C: 47 % of control
endpoint: median tumor weight change, dose: 800.0 mg/kg/injection, schedule: Q06HX002 (oral), vehicle: saline with Tween-80, higher = larger tumour
  T/C: -87 % of control and -85 % of control
endpoint: median tumor weight change, dose: 800.0 mg/kg/injection, schedule: Q06HX004 (oral), vehicle: saline with Tween-80, higher = larger tumour
  T/C: -99 % of control
endpoint: median tumor weight change, dose: 800.0 mg/kg/injection, schedule: Q07DX002 (oral), vehicle: saline with Tween-80, higher = larger tumour
  T/C: 1 % of control
endpoint: median tumor weight change, dose: 800.0 mg/kg/injection, schedule: Q07DX003 (oral), vehicle: saline with Tween-80, higher = larger tumour
  T/C: -10 % of control
endpoint: median tumor weight change, dose: 800.0 mg/kg/injection, schedule: Q08DX002 (oral), vehicle: saline with Tween-80, higher = larger tumour
  T/C: -14 % of control
endpoint: median tumor weight change, dose: 1199.4 mg/kg/injection, schedule: Q01DX001 (oral), vehicle: saline with Tween-80, higher = larger tumour
  T/C: 39 % of control
endpoint: median tumor weight change, dose: 1199.4 mg/kg/injection, schedule: Q08DX002 (oral), vehicle: saline with Tween-80, higher = larger tumour
  T/C: -36 % of control

## O=C(CCBr)N1CCN(C(=O)CCBr)CC1
endpoint: median tumor weight (est.), dose: 10.0 mg/kg/injection, schedule: Q07DX002 (ip), vehicle: saline with Tween-80, higher = larger tumour
  T/C: 90 % of control
endpoint: median tumor weight (est.), dose: 10.0 mg/kg/injection, schedule: Q07DX002 (ip), vehicle: water, higher = larger tumour
  T/C: 172 % of control
endpoint: median tumor weight (est.), dose: 20.0 mg/kg/injection, schedule: Q07DX002 (ip), vehicle: saline with Tween-80, higher = larger tumour
  T/C: 111 % of control
endpoint: median tumor weight (est.), dose: 20.0 mg/kg/injection, schedule: Q07DX002 (ip), vehicle: water, higher = larger tumour
  T/C: 109 % of control
endpoint: median tumor weight (est.), dose: 40.0 mg/kg/injection, schedule: Q07DX002 (ip), vehicle: saline with Tween-80, higher = larger tumour
  T/C: 60 % of control
endpoint: median tumor weight (est.), dose: 40.0 mg/kg/injection, schedule: Q07DX002 (ip), vehicle: water, higher = larger tumour
  T/C: 157 % of control
endpoint: median tumor weight (est.), dose: 80.0 mg/kg/injection, schedule: Q07DX002 (ip), vehicle: saline with Tween-80, higher = larger tumour
  T/C: 69 % of control and 78 % of control
endpoint: median tumor weight (est.), dose: 80.0 mg/kg/injection, schedule: Q07DX002 (ip), vehicle: water, higher = larger tumour
  T/C: 120 % of control
endpoint: median tumor weight (est.), dose: 160.0 mg/kg/injection, schedule: Q07DX002 (ip), vehicle: water, higher = larger tumour
  T/C: 91 % of control
endpoint: median tumor weight (est.), dose: 320.0 mg/kg/injection, schedule: Q07DX002 (ip), vehicle: water, higher = larger tumour
  T/C: 67 % of control

## Clc1ccc(C2SC=Cc3ccccc32)cc1 (stereo not drawn)
endpoint: median tumor weight (est.), dose: 50.0 mg/kg/injection, schedule: Q07DX002 (ip), vehicle: Klucel (hydroxypropylcellulose) (HPC), higher = larger tumour
  T/C: 56 % of control
endpoint: median tumor weight (est.), dose: 100.0 mg/kg/injection, schedule: Q07DX002 (ip), vehicle: Klucel (hydroxypropylcellulose) (HPC), higher = larger tumour
  T/C: 47 % of control
endpoint: median tumor weight (est.), dose: 200.0 mg/kg/injection, schedule: Q07DX002 (ip), vehicle: Klucel (hydroxypropylcellulose) (HPC), higher = larger tumour
  T/C: 57 % of control
endpoint: median tumor weight (est.), dose: 400.0 mg/kg/injection, schedule: Q07DX002 (ip), vehicle: Klucel (hydroxypropylcellulose) (HPC), higher = larger tumour
  T/C: 93 % of control

## c1ccc2c(NCCCCCCCCNc3c4ccccc4nc4ccccc34)c3ccccc3nc2c1
endpoint: median tumor weight (est.), dose: 5.0 mg/kg/injection, schedule: Q07DX002 (ip), vehicle: Klucel (hydroxypropylcellulose) (HPC), higher = larger tumour
  T/C: 109 % of control and 101 % of control
endpoint: median tumor weight (est.), dose: 10.0 mg/kg/injection, schedule: Q07DX002 (ip), vehicle: Klucel (hydroxypropylcellulose) (HPC), higher = larger tumour
  T/C: 78 % of control and 93 % of control
endpoint: median tumor weight (est.), dose: 20.0 mg/kg/injection, schedule: Q07DX002 (ip), vehicle: Klucel (hydroxypropylcellulose) (HPC), higher = larger tumour
  T/C: 75 % of control and 77 % of control
endpoint: median tumor weight (est.), dose: 40.0 mg/kg/injection, schedule: Q07DX002 (ip), vehicle: Klucel (hydroxypropylcellulose) (HPC), higher = larger tumour
  T/C: 72 % of control and 87 % of control
endpoint: median tumor weight (est.), dose: 80.0 mg/kg/injection, schedule: Q07DX002 (ip), vehicle: Klucel (hydroxypropylcellulose) (HPC), higher = larger tumour
  T/C: 79 % of control and 100 % of control

## Nc1nc2c(ncn2C2OC(CO)C(O)C2N)c(=O)[nH]1 (stereo not drawn)
endpoint: median tumor weight (est.), dose: 50.0 mg/kg/injection, schedule: Q07DX002 (ip), vehicle: saline with Tween-80, higher = larger tumour
  T/C: 73 % of control
endpoint: median tumor weight (est.), dose: 100.0 mg/kg/injection, schedule: Q07DX002 (ip), vehicle: saline with Tween-80, higher = larger tumour
  T/C: 74 % of control

## BrC1CC(Br)c2c1c1c(c3c2C(Br)CC3Br)C(Br)CC1Br (stereo not drawn)
endpoint: median tumor weight (est.), dose: 12.5 mg/kg/injection, schedule: Q07DX002 (ip), vehicle: saline with Tween-80, higher = larger tumour
  T/C: 157 % of control
endpoint: median tumor weight (est.), dose: 25.0 mg/kg/injection, schedule: Q07DX002 (ip), vehicle: saline with Tween-80, higher = larger tumour
  T/C: 94 % of control and 103 % of control
endpoint: median tumor weight (est.), dose: 200.0 mg/kg/injection, schedule: Q07DX002 (ip), vehicle: saline with Tween-80, higher = larger tumour
  T/C: 80 % of control and 86 % of control
endpoint: median tumor weight (est.), dose: 400.0 mg/kg/injection, schedule: Q07DX002 (ip), vehicle: saline with Tween-80, higher = larger tumour
  T/C: 81 % of control and 105 % of control
